# Laboratory results taken from publication PMC12455397 (Angewandte Chemie (International Ed. in English), 2025).
# Tests used:
# human Keap1 Kelch = human Keap1 Kelch (Homo sapiens, UniProt Q14145); test: Fluorescence polarization (FP) competition assay with Cy5-Nrf2 peptide probe
# Protocol: Fluorescence Polarization Assay
# (3 nM) and human Keap1 Kelch at 14 nM in the 1×HBSTET assay buffer, as previously.[1, 3-5] In short, the assay was performed in black flat-bottom 384-well plates (Corning Life Sciences, NY) allowing an assay volume of 30 μL/well. Proper mixing and elimination of air bubbles was ascertained by spinning down the plates and incubation for 10–15 minutes at RT before measuring FP levels on a Safire2 plate-reader (Tecan, Männedorf, Switzerland). The Ki values of the compounds were determined by dose-response experiments (12-points, 4% DMSO in all wells), where FP values were fitted to the equation Y = Bottom + (Top - Bottom)/[1 + (10HillSlope*(LogIC50-X))]; X representing the logarithmic value of compound concentration. The resulting IC50 value, together with the Kd value (the dissociation constant between probe and Keap1 Kelch, determined in a prior experiment) and Keap1 Kelch concentrations, was used to calculate the theoretical competitive inhibition constant, the Ki value.[18]
# [1] = test system: Nrf2 KO THP1 cells differentiated into macrophages; test: RNA sequencing transcriptome analysis, Nrf2 KO THP-1 macrophages; format: cell-based; settings: 12 h, CDDO-Me 0.1 µM, DMF, 24, 28 10 µM, KI-696 1 µM
# [2] = test system: Nrf2-regulated genes (AKR1B10, NQO1, TRXR1, HO-1) in HaCaT human keratinocytes; test: HaCaT cell assay, RT-qPCR of Nrf2-regulated genes; format: cell-based; settings: WT HaCaT, 3, 1 and 0.33 µM, 5 h, normalized to TBP
# THP1 cells = format: cell-based; settings: THP-1 WT, 10 and 100 µM, 48 h
# Protocol: THP1 cells were exposed to the compounds for 48 hours at 10 and 100 μM. Viability was quantified using
# propidium iodide exclusion through flow cytometry. PI-positive cells (dead or necrotic cells) were quantified
# through red fluorescence on a BD C6 Accuri flow cytometer using a 488 nm excitation wavelength and an
# emission filter of 585 nm ± 40 nm (BD Biosciences). 50,000 events were collected (n = 3 technical replicates
# per condition). The experiment was repeated twice. Data are presented as mean ± SEM (n = 4‒10).
# [3] = test system: differentiated THP1 macrophages (WT)
# [4] = test system: NLRP3 inflammasome in macrophage-derived THP-1 cells; test: NLRP3 inflammasome / TLR4 activation in THP-1 macrophages (WB, ELISA); format: cell-based; settings: 100 µM, 24 h
# [5] = test system: Nrf2-regulated genes (AKR1B10, NQO1, TRXR1, HO-1) in HaCaT human keratinocytes; test: HaCaT cell assay, Western Blotting of Nrf2-regulated proteins; format: cell-based; settings: 24 h
# [6] = test system: cGAS-STING pathway in macrophage-derived THP-1 cells; test: cGAS-STING pathway in THP-1 macrophages (WB); format: cell-based; settings: 100 µM, 24 h; cGAMP 4 µg/mL 6 h
# [7] = test system: IFN signalling in macrophage-derived THP-1 cells; test: Type I IFN signalling after IFNβ stimulation in THP-1 macrophages (WB); format: cell-based; settings: 100 µM, 24 h; IFNβ 500 U/mL 1 h
# [8] = test system: NQO1 mRNA in BEAS-2B cells; test: qPCR-based BEAS-2B cell assay (NQO1 mRNA); design: species or system human; settings: mean ± SEM, 2-4 independent experiments
# Protocol: RT-qPCR were stimulated with compounds or DMSO diluted in DMEM and incubated for 24 h. DMSO was added accordingly to highest percentage compound volume added.
# Upon 24 hour compound stimulation, the cells were trypsinized, washed, spun down and resuspended in 70 μL of ice-cold Pierce RIPA lysis buffer (Thermo Scientific) supplemented with 10 mM NaF, 1× complete protease cocktail inhibitor (Roche), and 5 IU mL-1 benzonase (Sigma), respectively. The protein concentrations were determined using the BCA protein assay kit (Thermo Scientific) and samples was equalized accordingly to the sample of lowest protein concentration. 1×XT sample buffer (Bio-Rad) and 1×XT reducing agent (Bio-Rad) were added to the samples, and lysates were denatured by boiling for 5 min at 95 °C. Denatured samples was separated by SDS-PAGE on a 4–20% Criterion TGX precast gradient gel (Bio-Rad). The gel ran initially for 20 min at 70 V and 45 min at 120 V and was then transferred onto a PVDF membrane (Bio-Rad) using a Trans-Blot Turbo transfer system. […]
# Upon 5 hour compound stimulation, RNA was extracted from the cells using the High Pure RNA Isolation Kit (Roche, 11828665001) according to the manufacturer’s instructions. […] The quality and purity of the RNAs were assessed by Nanodrop spectrometry (DeNovix DS-11). Using the TaqMan detection systems, the gene expression of HO-1 (HMOX-1), NQO1, AKR1B10, and TRXR1 was determined by real-time PCR. […] The commercially available TaqMan assay (Thermo Fischer Scientific, cat. no. 4392938) was used, and samples were analyzed in a final volume of 10 μL reaction mix containing 5 μL of master mix, 0.2 μL of RT enzyme, 2.3 μL of nuclease-free water, […] (TATA-Box Binding Protein/TBP; […]
# Hs00917067_m1, Thermo Fisher), and 2 μL of pure RNA. The samples were analyzed using a QuantStudioTM 3 real-time PCR instrument with the following program: 1 × (10 min, 48.0 °C; 10 min, 95.0 °C); 40 × (30 s, 95.0 °C; 1 min, 60.0 °C). […]
# The upregulation of NQO1 mRNA in BEAS-2B cells was measured by qPCR, as previously described.[20] […]
# [9] = WT, 12 h, CDDO-Me 0.1 µM, SFN, DMF, 24, 28 10 µM, KI-696 1 µM
# [10] = WT, 12 h, CDDO-Me 0.1 µM, SFN, DMF, 24, 28 10 µM, KI-696 1 µM, NS = not significant
# [11] = LPS or LPS+nigericin stimulation
# Chain of human Keap1 Kelch (Q14145 321-609): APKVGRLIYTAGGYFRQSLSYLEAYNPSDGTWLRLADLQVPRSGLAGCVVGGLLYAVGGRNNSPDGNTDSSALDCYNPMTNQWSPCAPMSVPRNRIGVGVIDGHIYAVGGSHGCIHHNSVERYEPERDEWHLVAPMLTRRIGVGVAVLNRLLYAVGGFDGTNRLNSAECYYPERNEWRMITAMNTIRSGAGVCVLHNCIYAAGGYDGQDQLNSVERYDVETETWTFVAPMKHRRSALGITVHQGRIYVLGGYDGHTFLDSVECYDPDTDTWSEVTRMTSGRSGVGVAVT
smiles,measurement,setting,value
Cc1cc2c(cc1C(CC(=O)O)c1ccc3ccc(OCC(=O)NC4CCCCCC4)cc3c1)OCCO2 (stereo not shown) [Compound 28],Ki,"human Keap1 Kelch; Ki (FP), mean, ≥3 individual measurements, text and figures",8.8 nM
same,ligand efficiency (LE),human Keap1 Kelch; from FP Ki,0.29
same,number of up- or downregulated genes in Nrf2 KO cells,[1],266 genes
same,target gene mRNA expression (RT-qPCR),[2],several‐fold increases in target gene mRNA expression
same,cell viability,THP1 cells,did not reduce cell viability
same,AKR1B10 FC,"[3]; Table S3, THP-1, 12 h","4,27 fold"
same,CASP1 FC,"[3]; Table S3, THP-1, 12 h","0,59 fold"
same,COL1A1 FC,"[3]; Table S3, THP-1, 12 h","1,40 fold"
same,COL4A1 FC,"[3]; Table S3, THP-1, 12 h","1,15 fold"
same,COL4A2 FC,"[3]; Table S3, THP-1, 12 h","1,11 fold"
same,CYP1B1 FC,"[3]; Table S3, THP-1, 12 h","1,04 fold"
same,GPX1 FC,"[3]; Table S3, THP-1, 12 h","0,62 fold"
same,GPX4 FC,"[3]; Table S3, THP-1, 12 h","1,20 fold"
same,IFNAR1 FC,"[3]; Table S3, THP-1, 12 h","0,92 fold"
same,IFNAR2 FC,"[3]; Table S3, THP-1, 12 h","0,99 fold"
same,IFNGR1 FC,"[3]; Table S3, THP-1, 12 h","0,64 fold"
same,IFNGR2 FC,"[3]; Table S3, THP-1, 12 h","0,76 fold"
same,IL1B FC,"[3]; Table S3, THP-1, 12 h","0,88 fold"
same,IRF3 FC,"[3]; Table S3, THP-1, 12 h","1,03 fold"
same,LAMB1 FC,"[3]; Table S3, THP-1, 12 h","4,94 fold"
same,LAMB4 FC,"[3]; Table S3, THP-1, 12 h","3,01 fold"
same,MMP8 FC,"[3]; Table S3, THP-1, 12 h","0,94 fold"
same,MMP9 FC,"[3]; Table S3, THP-1, 12 h","1,03 fold"
same,MMP12 FC,"[3]; Table S3, THP-1, 12 h","0,53 fold"
same,NLRP3 FC,"[3]; Table S3, THP-1, 12 h","0,79 fold"
same,NOD2 FC,"[3]; Table S3, THP-1, 12 h","0,38 fold"
same,NOXA1 FC,"[3]; Table S3, THP-1, 12 h","0,50 fold"
same,SOCS1 FC,"[3]; Table S3, THP-1, 12 h","1,95 fold"
same,SOCS3 FC,"[3]; Table S3, THP-1, 12 h","2,13 fold"
same,SOD1 FC,"[3]; Table S3, THP-1, 12 h","1,35 fold"
same,SOD2 FC,"[3]; Table S3, THP-1, 12 h","0,68 fold"
same,STAT1 FC,"[3]; Table S3, THP-1, 12 h","0,77 fold"
same,TBK1 FC,"[3]; Table S3, THP-1, 12 h","1,01 fold"
same,TLR4 FC,"[3]; Table S3, THP-1, 12 h","1,04 fold"
same,TNFRSF1B FC,"[3]; Table S3, THP-1, 12 h","1,14 fold"
same,TRAP1 FC,"[3]; Table S3, THP-1, 12 h","0,86 fold"
same,cGAS FC,"[3]; Table S3, THP-1, 12 h","1,29 fold"
same,Average FC of upregulated Nrf2-dependent genes,[3]; [9],2.5 fold
same,"number of upregulated genes (FC >2.0, p-adj <0.05)",[3]; [9],175 genes
same,GCLM fold change vs vehicle,[3]; [10],3.0 fold
same,GSR fold change vs vehicle,[3]; [10],2.0 fold
same,HMOX1 fold change vs vehicle,[3]; [10],2.4 fold
same,SRXN1 fold change vs vehicle,[3]; [10],2.4 fold
same,TXNRD1 fold change vs vehicle,[3]; [10],2.9 fold
same,NQO1 upregulation at 24 h,"[3]; WT, 24 h, 10 µM (footnote * of Figure 7c)",1.5 fold
same,NLRP3 inflammasome activation: release of cleaved caspase-1 and cleaved IL-1β in supernatants (WB),[4],markedly decreased NLRP3 inflammasome activation
same,cleavage of gasdermin D (GSDMD) (WB),[4],prevented the cleavage of gasdermin D
same,IL-1β release (ELISA) following NLRP3 activation,[4]; LPS 100 ng/mL 3 h + nigericin 10 µM 1 h,confirmed a decrease
same,IL-1β release (ELISA) following high concentrations of LPS,[4]; LPS 2 µg/mL 6 h,no statistical difference was observed
same,expression of NLRP3 (WB),[4]; [11],markedly reduced
same,total protein levels of pro-IL-1β (WB),[4]; [11],also reduced
same,protein levels of Nrf2-regulated genes by WB,"[5]; HaCaT, 10 µM",strong bands in WB for all tested proteins
same,relative cell potency among the six compounds (WB),"[5]; HaCaT, 10, 3, 1 µM",most potent
same,ISG15 levels (WB),[6],reduced levels
same,total STING levels and STING activation (phosphorylated STING and TBK1) (WB),[6],reduced total STING levels and STING activation
same,"IFN signalling (phosphorylated STAT1, IFIT1 protein levels) (WB)",[7],did not affect IFN signalling
same,EC50,"[8]; Homo sapiens, BEAS-2B",60.1 ± 5.7 nM
same,EC50,[8],60 nM
